Measurements reported in US10538485B2, “Compounds for use as therapeutic agents affecting P53 expression and/or activity” (ABIVAX, priority 2011, dated 2020).

What was measured:
Assay type in all cases: cell-based
[1] = test system: p53-target genes Hdm2, Bcl-2, p21 (mutant p53 MDA-MB-231-Luc-D3H2N cells); assay: p53 transcriptional activity: p53-target gene expression by Western-blot in MDA-MB-231-Luc-D3H2N cells; details: 5 μM, 48 hours
Description: (§1) The compounds of the invention have been tested according to the following pharmacological test and the three compounds have been more particularly tested: (40), (1) and (45), all diluted in DMSO. Their effects were thus compared to cells treated with DMSO. A positive control was used, TG003, a benzothiazole compound known to alter splicing through the inhibition of Clk/Sty family activity (Sigma, ref: T5575).
(§2) Two breast cancer cell lines have been treated with 5 μM of drugs for 48 hours: wild-type p53 MCF7 cells and mutant p53 (R280K) MDA-MB-231-Luc-D3H2N provided by Caliper Life Science (parental Line source: American Type Culture collection). The MDA-MB-231-Luc-D3H2N cells were maintained in two different media during treatment: a DMEM supplemented with 10% foetal calf serum (FCS) and a FCS-free medium for 24 hours followed by 24 hours in a complete medium. The MC7 cells were maintained in a DMEM/FCS 10% medium.
(§3) Cells were harvested after 48 hours of treatment. Total RNAs (RNeasy Mini-Kit, Qiagen) and proteins (NuPage LDS 1×, Invitrogen) were extracted to analyse mRNA expression by nested RT-PCR or RT-qPCR and protein expression by Western Blot.
(§4) Analysis of p53 transcriptional activity was assessed through analysis of p53-target gene expression by Western-blot. Four p53-target genes were studied: Hdm2, Bcl-2, p21 and Bax. Hdm2 is known to bind p53 and to negatively regulate p53 activity and stability. p21 is known to mediate p53 dependent cycle arrest. Bcl 2 is known to have an anti-proliferative effect and an apoptotic protective effect, while Bax is known to have a pro-apoptic effect. Bax was not detected in both MCF7 and MDA-MB-231-Luc-D3H2N cells, while p21 was not detected in MDA-MB-231-Luc-D3H2N cells maintained in FCS-free medium. The Western-blot was performed as above described using the antibodies described in Bourdon et al., Genes Dev., 2005, 19: 2122.

[2] = test system: p53 (wild-type p53 MCF7 cells); assay: p53 protein expression by Western Blot (4 antibodies) in MCF7 cells; details: 5 μM, 48 hours, vs DMSO
Description: as §1, §2
Cells were harvested after 48 hours of treatment. […]
(§5) p53 protein expression was determined using a panel of 4 different antibodies, namely DO1, SAPLI, CMI and DO12 as described in Bourdon et al. (Genes Dev., 2005, 19: 2122), to avoid problem of detection due to post-translational modification.
The amount of total proteins in each extract was quantified using BCA kit (promega). […]
(§6) Scanned autoradiographs were quantified using AIDA/2D densitometry software.

[3] = test system: p53 (mutant p53 (R280K) MDA-MB-231-Luc-D3H2N cells); assay: p53 mRNA level by RT-qPCR in MDA-MB-231-Luc-D3H2N cells; details: 5 μM, 48 hours; for p53 expression at mRNA levels (total isoforms, TA): mutant p53 MDA-MB-231-Luc-D3H2N cells in normal medium
Description: as §1, §2, §3
(§7) Analysis of p53 expression was assessed both at mRNA (full-length and truncated, Δ133p53 isoforms) and protein (full-length) levels by RT-qPCR and Western Blot, respectively.
(§8) The p53 isoform cDNA being too long to be specifically quantified by RT-qPCR, a semi-quantitative RT-PCR method was therefore used, requiring high quality total RNA 28S/18S ratio (>1.5). After reverse-transcription of 500 ng of total RNA using random primers, actin cDNA was amplified by PCR to confirm reverse-transcription efficiency. 0.5 μg of total RNA from each tumour sample was reverse-transcribed (AMV RT, 45 C, random primer) and cDNA quality confirmed by amplification of actin by PCR in 30 cycles. p53 isoform cDNA was amplified by 2 nested PCR of 30 cycles using primers specific of each isoforms as described in Bourdon et al. (Genes Dev., 2005, 19: 2122). Tumours were considered to express each p53 isoform after sequencing of the corresponding PCR fragment.

[4] = test system: p53 (mutant p53 (R280K) MDA-MB-231-Luc-D3H2N cells); assay: p53 protein expression by Western Blot (4 antibodies) in MDA-MB-231-Luc-D3H2N cells; details: 5 μM, 48 hours
Description: as §1, §2, §3, §5
The amount of total proteins in each extract was quantified using BCA kit (promega). 8% SDS-PAGE gels were used. Equal amount (30 μg) of proteins was loaded on each lane. Proteins were then transferred electrophoretically on nitrocellulose membrane. Membranes were blocked in TBS/0.1% Tween 20 containing 3% milk for one hour and then incubated overnight with the primary antibodies diluted in TBS/0.1% Tween 20 containing 3% milk. After several washes in TBS/Tween, membranes were incubated with anti-rabbit Ig antibodies linked to HRP. Membranes were developed with ECL according to the manufacturer's instructions.
as §6

[5] = test system: p53 (wild-type p53 MCF7 cells); assay: p53 and Δ133p53 mRNA level by RT-qPCR in MCF7 cells; details: 5 μM, 48 hours, vs DMSO
Description: as §1, §2, §3, §7, §8

[6] = test system: p53 isoforms produced by alternative splicing (mutant p53 MDA-MB-231-Luc-D3H2N cells); assay: p53 isoforms (α, β, γ) expression at mRNA level in MDA-MB-231-Luc-D3H2N cells; details: 5 μM, 48 hours, RT-qPCR
Description: as §2, §3
(§9) Expression of p53 isoforms produced by alternative splicing (α, β and γ) was analysed at mRNA levels by RT-qPCR using primers/probe specific of each C-terminal variants. The α-forms are the most abundant forms. In the low abundant forms, β-forms are more expressed than γ-forms.
as §8, with “A semi-quantitative” for “The p53 isoform cDNA being too long to be specifically quantified by RT-qPCR, a semi-quantitative”, “method” for “method was therefore used,”, “RT, 45C,” for “RT, 45 C,”, “described by” for “described in”

[7] = test system: p53-target genes Hdm2, Bcl-2, p21 (wild-type p53 MCF7 cells); assay: p53 transcriptional activity: p53-target gene expression by Western-blot in MCF7 cells; details: 5 μM, 48 hours
Description: as §1, §2, §3, §4

[8] = test system: p53 isoforms produced by alternative splicing (wild-type p53 MCF7 cells); assay: p53 isoforms (α, β, γ) expression at mRNA level in MCF7 cells; details: 5 μM, 48 hours, RT-qPCR
Description: as §2, §3, §9
as §8, with “A semi-quantitative” for “The p53 isoform cDNA being too long to be specifically quantified by RT-qPCR, a semi-quantitative”, “method” for “method was therefore used,”, “RT, 45C,” for “RT, 45 C,”, “described by” for “described in”

[9] = mutant p53 MDA-MB-231-Luc-D3H2N cells in FCS-free medium
[10] = mutant p53 MDA-MB-231-Luc-D3H2N cells in normal medium

Row | SMILES | p53-target genes expression [1, 10] | p53 protein levels (full-length) [2] | p53 expression at mRNA levels (total isoforms, TA) [3] | p53 protein levels (full-length) [4, 9] | p53 protein levels (full-length) [4, 10] | total p53 expression (total isoforms, TA) at mRNA levels [5] | p53 α-form expression at mRNA levels [6, 9] | expression of p53 β-forms (mRNA) [6, 10] | expression of p53 γ-forms (mRNA) [6, 10] | p53 α-form expression at mRNA levels [6, 10] | expression of Bcl-2 (p53-target gene) [7] | expression of Hdm2 (p53-target gene) [7] | expression of p53 β-forms (mRNA) [8] | expression of p53 γ-forms (mRNA) [8] | p53 α-form expression at mRNA levels [8] | also measured
1 | CCN(CC)CCCNC(=O)c1cccc(Nc2cccc(/C=C/c3ccc(OC)cc3)c2)c1 [Compound 40] | did not affect | decreased | decreased | did not change | did not change | did not change | did not change | tend to increase | tend to increase | did not change | decreased expression | decreased expression | tend to increase | tend to increase | did not change | p53-target genes expression [1, 9]: did not affect; Δ133p53 mRNA level [5]: increased
2 | CCN(CC)CCNC(=O)c1ccccc1Nc1ccc(OC(F)(F)F)cc1 [Compound 45, N-(2-diethylamino-ethyl)-2-(4-trifluoromethoxy-phenylamino)-benzamide] | slight decrease | decreased | decreased | did not change | did not change | did not change | did not change | tend to increase | tend to increase | did not change | decreased expression | decreased expression | tend to increase | tend to increase | did not change | expression of Bcl-2 (p53-target gene) [1, 9]: slight decrease; p53 expression at mRNA levels (total isoforms, TA): decreased or not [3, 9]: decreased; expression of p53 β-forms (mRNA) [6, 9]: tend to increase; expression of p53 γ-forms (mRNA) [6, 9]: tend to increase; significant increase of p53 β-forms (mRNA) [6, 10]: 3 fold; significant increase of p53 γ-forms (mRNA) [6, 10]: 2 fold
